Assay results as given in US20230365592A1 (Agios Pharmaceuticals, Inc., priority 2022, published 2023).

target: T1, human PAH with the R408W mutation (Homo sapiens, UniProt P00439, R408W); assay: Cell Based Phenylalanine Flux Assay; details: A375 cells expressing human R408W PAH; 24 hrs compound incubation; 13C-Tyrosine by LC-MS; average where tested multiple times; read-out: AC50;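 note: after compound treatment, cells received sepiapterin plus isotope-labelled Phenylalanine for 4 hours, then labelled Tyrosine in the medium was quantified, 10-point 2-fold dilution series run in duplicate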
T1 construct: expressed in transfected cells
T1 sequence (P00439 1-452 R408W): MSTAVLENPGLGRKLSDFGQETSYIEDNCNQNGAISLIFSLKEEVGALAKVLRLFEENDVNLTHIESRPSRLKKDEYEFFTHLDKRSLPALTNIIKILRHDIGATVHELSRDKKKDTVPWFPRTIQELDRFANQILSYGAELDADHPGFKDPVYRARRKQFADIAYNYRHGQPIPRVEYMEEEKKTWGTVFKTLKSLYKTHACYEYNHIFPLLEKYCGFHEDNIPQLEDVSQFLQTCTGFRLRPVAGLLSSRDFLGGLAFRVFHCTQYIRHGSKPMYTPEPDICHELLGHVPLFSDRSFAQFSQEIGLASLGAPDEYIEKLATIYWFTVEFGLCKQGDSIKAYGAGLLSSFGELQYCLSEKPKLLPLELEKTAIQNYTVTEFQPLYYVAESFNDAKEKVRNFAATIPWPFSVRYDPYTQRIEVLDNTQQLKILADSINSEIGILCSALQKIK

| Structure (SMILES) | AC50 [nM] |
| --- | --- |
| Cc1cccn2nc([C@@H]3c4nc[nH]c4CCN3C(=O)c3nnc(-c4ccc(F)cn4)o3)cc12 [Example 875, (S)-(5-(5-fluoropyridin-2-yl)-1,3,4-oxadiazol-2-yl)(4-(4-methylpyrazolo[1,5-a]pyridin-2-yl)-6,7-dihydro-1H-imidazo[4,5-c]pyridin-5(4H)-yl)methanone] | < 500 |
| Cc1ccc(-c2nnc(C(=O)N3CCc4[nH]cnc4[C@@H]3c3cc4c(F)cccn4n3)o2)nc1 [Example 876, (R)-(4-(4-fluoropyrazolo[1,5-a]pyridin-2-yl)-6,7-dihydro-1H-imidazo[4,5-c]pyridin-5(4H)-yl)(5-(5-methylpyridin-2-yl)-1,3,4-oxadiazol-2-yl)methanone] | > 5000 |
| O=C(c1nnc(-c2ccc(C(F)(F)F)cn2)o1)N1CCc2[nH]cnc2[C@H]1c1cc2c(F)cccn2n1 [Example 879, (S)-(4-(4-fluoropyrazolo[1,5-a]pyridin-2-yl)-6,7-dihydro-1H-imidazo[4,5-c]pyridin-5(4H)-yl)(5-(5-(trifluoromethyl)pyridin-2-yl)-1,3,4-oxadiazol-2-yl)methanone] | < 500 |
| O=C(c1nnc(-c2ccc(F)cn2)o1)N1CCc2[nH]cnc2[C@@H]1c1cc2c(F)cccn2n1 [Example 880, (R)-(4-(4-fluoropyrazolo[1,5-a]pyridin-2-yl)-6,7-dihydro-1H-imidazo[4,5-c]pyridin-5(4H)-yl)(5-(5-fluoropyridin-2-yl)-1,3,4-oxadiazol-2-yl)methanone] | > 5000 |
| Cn1nccc1C(=O)N1CCc2[nH]cnc2[C@H]1c1cc2c(F)cccn2n1 [Example 884, (S)-(4-(4-fluoropyrazolo[1,5-a]pyridin-2-yl)-6,7-dihydro-1H-imidazo[4,5-c]pyridin-5(4H)-yl)(1-methyl-1H-pyrazol-5-yl)methanone] | 500 to 1000 |
| COc1cccn2nc([C@@H]3c4nc[nH]c4CCN3C(=O)c3cc(C(F)F)nn3C)cc12 [Example 886, (S)-(3-(difluoromethyl)-1-methyl-1H-pyrazol-5-yl)(4-(4-methoxypyrazolo[1,5-a]pyridin-2-yl)-6,7-dihydro-1H-imidazo[4,5-c]pyridin-5(4H)-yl)methanone] | < 500 |
| COc1cccn2nc([C@H]3c4nc[nH]c4CCN3C(=O)c3cc(C(F)F)nn3C)cc12 [Example 887, (R)-(3-(difluoromethyl)-1-methyl-1H-pyrazol-5-yl)(4-(4-methoxypyrazolo[1,5-a]pyridin-2-yl)-6,7-dihydro-1H-imidazo[4,5-c]pyridin-5(4H)-yl)methanone] | > 5000 |
| Cn1cncc1-c1nc(C(F)F)c(C(=O)N2CCc3[nH]cnc3[C@@H]2c2cc3c(F)cccn3n2)o1 [Example 888, (R)-(4-(difluoromethyl)-2-(1-methyl-1H-imidazol-5-yl)oxazol-5-yl)(4-(4-fluoropyrazolo[1,5-a]pyridin-2-yl)-6,7-dihydro-1H-imidazo[4,5-c]pyridin-5(4H)-yl)methanone] | > 5000 |
| Cn1cncc1-c1nc(C(F)F)c(C(=O)N2CCc3[nH]cnc3[C@H]2c2cc3c(F)cccn3n2)o1 [Example 889, (S)-(4-(difluoromethyl)-2-(1-methyl-1H-imidazol-5-yl)oxazol-5-yl)(4-(4-fluoropyrazolo[1,5-a]pyridin-2-yl)-6,7-dihydro-1H-imidazo[4,5-c]pyridin-5(4H)-yl)methanone] | 500 to 1000 |
| Cc1cccn2nc([C@H]3c4nc[nH]c4CCN3C(=O)c3oc(-c4cncn4C)nc3C(F)F)cc12 [Example 890, (R)-(4-(difluoromethyl)-2-(1-methyl-1H-imidazol-5-yl)oxazol-5-yl)(4-(4-methylpyrazolo[1,5-a]pyridin-2-yl)-6,7-dihydro-1H-imidazo[4,5-c]pyridin-5(4H)-yl)methanone] | > 5000 |
| O=C(c1nnc(-c2cccnc2)o1)N1CCc2[nH]cnc2[C@H]1c1cc2c(F)cccn2n1 [Example 896, (S)-(4-(4-fluoropyrazolo[1,5-a]pyridin-2-yl)-6,7-dihydro-1H-imidazo[4,5-c]pyridin-5(4H)-yl)(5-(pyridin-3-yl)-1,3,4-oxadiazol-2-yl)methanone] | < 500 |
| COc1cccn2nc([C@@H]3c4nc[nH]c4CCN3C(=O)c3ccnn3-c3ccccn3)cc12 [Example 898, (S)-(4-(4-methoxypyrazolo[1,5-a]pyridin-2-yl)-6,7-dihydro-1H-imidazo[4,5-c]pyridin-5(4H)-yl)(1-(pyridin-2-yl)-1H-pyrazol-5-yl)methanone] | < 500 |
| Cc1cc(C(=O)N2CCc3[nH]cnc3[C@H]2c2cc3c(C)cccn3n2)n(C)n1 [Example 900, (S)-(1,3-dimethyl-1H-pyrazol-5-yl)(4-(4-methylpyrazolo[1,5-a]pyridin-2-yl)-6,7-dihydro-1H-imidazo[4,5-c]pyridin-5(4H)-yl)methanone] | < 500 |
| Cn1cc(-c2nc(C(F)F)c(C(=O)N3CCc4[nH]cnc4[C@@H]3c3cc4c(F)cccn4n3)o2)cn1 [Example 903, (R)-(4-(difluoromethyl)-2-(1-methyl-1H-pyrazol-4-yl)oxazol-5-yl)(4-(4-fluoropyrazolo[1,5-a]pyridin-2-yl)-6,7-dihydro-1H-imidazo[4,5-c]pyridin-5(4H)-yl)methanone] | 1000 to 5000 |
| O=C(c1nnc(-c2ncccc2F)o1)N1CCc2[nH]cnc2[C@@H]1c1cc2c(C(F)(F)F)cccn2n1 [Example 904, (R)-(5-(3-fluoropyridin-2-yl)-1,3,4-oxadiazol-2-yl)(4-(4-(trifluoromethyl)pyrazolo[1,5-a]pyridin-2-yl)-6,7-dihydro-1H-imidazo[4,5-c]pyridin-5(4H)-yl)methanone] | > 5000 |
| O=C(c1nnc(-c2ncccc2F)o1)N1CCc2[nH]cnc2[C@H]1c1cc2c(C(F)(F)F)cccn2n1 [Example 905, (S)-(5-(3-fluoropyridin-2-yl)-1,3,4-oxadiazol-2-yl)(4-(4-(trifluoromethyl)pyrazolo[1,5-a]pyridin-2-yl)-6,7-dihydro-1H-imidazo[4,5-c]pyridin-5(4H)-yl)methanone] | < 500 |

Next, values leading:

| AC50 [nM] | Structure (SMILES) |
| --- | --- |
| < 500 | Cc1ccc(-c2nnc(C(=O)N3CCc4[nH]cnc4[C@H]3c3cc4c(F)cccn4n3)o2)nc1 [Example 877, (S)-(4-(4-fluoropyrazolo[1,5-a]pyridin-2-yl)-6,7-dihydro-1H-imidazo[4,5-c]pyridin-5(4H)-yl)(5-(5-methylpyridin-2-yl)-1,3,4-oxadiazol-2-yl)methanone] |
| > 5000 | O=C(c1nnc(-c2ccc(C(F)(F)F)cn2)o1)N1CCc2[nH]cnc2[C@@H]1c1cc2c(F)cccn2n1 [Example 878, (R)-(4-(4-fluoropyrazolo[1,5-a]pyridin-2-yl)-6,7-dihydro-1H-imidazo[4,5-c]pyridin-5(4H)-yl)(5-(5-(trifluoromethyl)pyridin-2-yl)-1,3,4-oxadiazol-2-yl)methanone] |
| < 500 | O=C(c1nnc(-c2ccc(F)cn2)o1)N1CCc2[nH]cnc2[C@H]1c1cc2c(F)cccn2n1 [Example 881, (S)-(4-(4-fluoropyrazolo[1,5-a]pyridin-2-yl)-6,7-dihydro-1H-imidazo[4,5-c]pyridin-5(4H)-yl)(5-(5-fluoropyridin-2-yl)-1,3,4-oxadiazol-2-yl)methanone] |
| > 5000 | Cc1cc(-c2nnc(C(=O)N3CCc4[nH]cnc4[C@@H]3c3cc4c(F)cccn4n3)o2)nn1C [Example 882, (R)-(5-(1,5-dimethyl-1H-pyrazol-3-yl)-1,3,4-oxadiazol-2-yl)(4-(4-fluoropyrazolo[1,5-a]pyridin-2-yl)-6,7-dihydro-1H-imidazo[4,5-c]pyridin-5(4H)-yl)methanone] |
| < 500 | Cc1cccn2nc([C@@H]3c4nc[nH]c4CCN3C(=O)c3oc(-c4cncn4C)nc3C(F)F)cc12 [Example 891, (S)-(4-(difluoromethyl)-2-(1-methyl-1H-imidazol-5-yl)oxazol-5-yl)(4-(4-methylpyrazolo[1,5-a]pyridin-2-yl)-6,7-dihydro-1H-imidazo[4,5-c]pyridin-5(4H)-yl)methanone] |
| < 500 | Cc1cc(C(=O)N2CCc3[nH]cnc3[C@H]2c2cc3ccccn3n2)n(C)n1 [Example 892, (S)-(1,3-dimethyl-1H-pyrazol-5-yl)(4-(pyrazolo[1,5-a]pyridin-2-yl)-6,7-dihydro-1H-imidazo[4,5-c]pyridin-5(4H)-yl)methanone] |
| > 5000 | Cc1cccn2nc([C@H]3c4nc[nH]c4CCN3C(=O)c3nnc(-c4cccnc4)o3)cc12 [Example 895, (R)-(4-(4-methylpyrazolo[1,5-a]pyridin-2-yl)-6,7-dihydro-1H-imidazo[4,5-c]pyridin-5(4H)-yl)(5-(pyridin-3-yl)-1,3,4-oxadiazol-2-yl)methanone] |
| > 5000 | O=C(c1nnc(-c2cccnc2)o1)N1CCc2[nH]cnc2[C@@H]1c1cc2c(F)cccn2n1 [Example 897, (R)-(4-(4-fluoropyrazolo[1,5-a]pyridin-2-yl)-6,7-dihydro-1H-imidazo[4,5-c]pyridin-5(4H)-yl)(5-(pyridin-3-yl)-1,3,4-oxadiazol-2-yl)methanone] |
| > 5000 | Cc1cc(C(=O)N2CCc3[nH]cnc3[C@@H]2c2cc3c(C)cccn3n2)n(C)n1 [Example 901, (R)-(1,3-dimethyl-1H-pyrazol-5-yl)(4-(4-methylpyrazolo[1,5-a]pyridin-2-yl)-6,7-dihydro-1H-imidazo[4,5-c]pyridin-5(4H)-yl)methanone] |
| < 500 | Cn1cc(-c2nc(C(F)F)c(C(=O)N3CCc4[nH]cnc4[C@H]3c3cc4c(F)cccn4n3)o2)cn1 [Example 902, (S)-(4-(difluoromethyl)-2-(1-methyl-1H-pyrazol-4-yl)oxazol-5-yl)(4-(4-fluoropyrazolo[1,5-a]pyridin-2-yl)-6,7-dihydro-1H-imidazo[4,5-c]pyridin-5(4H)-yl)methanone] |
